Assay results taken from PubChem BioAssay (NCI).
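Where inhibition never reached the appropriate level, the endpoint shown equals the highest concentration tested. Otherwise, values were interpolated linearly from a five-concentration, 48-hour dose response in 96-well plates. GI50: concentration for 50% inhibition of growth. At the TGI there is no net growth.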

How the values were obtained:
Assay in all cases: NCI-60 cell line screen, 48 h
[1] = tested on: M14 melanoma
[2] = tested on: NCI-H460 lung
[3] = tested on: PC-3 prostate
[4] = tested on: NCI-H522 lung
[5] = tested on: LOX IMVI melanoma
[6] = tested on: OVCAR-3 ovarian
[7] = tested on: EKVX NSCLC
[8] = tested on: UACC-257 melanoma
[9] = tested on: SW-620 colon
[10] = tested on: UO-31 renal
[11] = tested on: BT-549 breast
[12] = tested on: MCF7 breast
[13] = tested on: CCRF-CEM leukemia
[14] = tested on: MDA-MB-231 breast
[15] = tested on: ACHN renal
[16] = tested on: COLO 205 colon
[17] = tested on: TK-10 renal
[18] = tested on: NCI-H226 lung
[19] = tested on: RXF 393 renal
[20] = tested on: OVCAR-4 ovarian
[21] = tested on: SF-295 CNS
[22] = tested on: MDA-MB-435
[23] = tested on: SF-268 CNS
[24] = tested on: SK-OV-3 ovarian
[25] = tested on: MOLT-4 leukemia
[26] = tested on: HCT-15 colon
[27] = tested on: DU-145 prostate
[28] = tested on: UACC-62 melanoma
[29] = tested on: SNB-19 CNS
[30] = tested on: MALME-3M melanoma
[31] = tested on: SR leukemia
[32] = tested on: OVCAR-8 ovarian
[33] = tested on: HS 578T breast
[34] = tested on: IGROV1 ovarian
[35] = tested on: HOP-62 NSCLC
[36] = tested on: U251 CNS
[37] = tested on: RPMI-8226 leukemia
[38] = tested on: SK-MEL-5 melanoma
[39] = tested on: A498 renal
[40] = tested on: HCT-116 colon
[41] = tested on: A549 NSCLC
[42] = tested on: NCI/ADR-RES ovarian
[43] = tested on: CAKI-1 renal
[44] = tested on: K-562 leukemia
[45] = tested on: OVCAR-5 ovarian
[46] = tested on: T-47D breast
[47] = tested on: HL-60(TB) leukemia
[48] = tested on: SNB-75 CNS
[49] = tested on: SN12C renal
[50] = tested on: HT29 colon
[51] = tested on: KM12 colon
[52] = tested on: HCC-2998 colon
[53] = tested on: SF-539 CNS
[54] = tested on: HOP-92 NSCLC
[55] = tested on: SK-MEL-28 melanoma
[56] = tested on: SK-MEL-2 melanoma
[57] = tested on: 786-0 renal

## CCCC(=O)NC(c1cccnc1)c1cc(C(C)(C)C)c2cccnc2c1O (centres undefined)
[1]
  GI50: 3.91 µM
  TGI: 44 µM
[2]
  GI50: 3.89 µM
  TGI: > 100 µM
[3]
  GI50: 4.39 µM
  TGI: > 100 µM
[4]
  GI50: 2780 nM
  TGI: 20.4 µM
[5]
  GI50: 3.78 µM
  TGI: > 100 µM
[6]
  GI50: 3.98 µM
  TGI: > 100 µM
[7]
  GI50: 5.19 µM
  TGI: > 100 µM
[8]
  GI50: 3.82 µM
  TGI: 66.4 µM
[9]
  GI50: 6.07 µM
  TGI: > 100 µM
[10]
  GI50: 2220 nM
  TGI: > 100 µM
[11]
  GI50: 5.06 µM
  TGI: > 100 µM
[12]
  GI50: 2970 nM
  TGI: > 100 µM
[13]
  GI50: 2630 nM
  TGI: > 100 µM
[14]
  GI50: 6.3 µM
  TGI: > 100 µM
[15]
  GI50: 3.62 µM
  TGI: > 100 µM
[16]
  GI50: 3.25 µM
  TGI: > 100 µM
[17]
  GI50: 5.48 µM
  TGI: > 100 µM
[18]
  GI50: 3.75 µM
  TGI: 83.1 µM
[19]
  GI50: 4.31 µM
  TGI: > 100 µM
[20]
  GI50: 3.82 µM
  TGI: > 100 µM
[21]
  GI50: 4.24 µM
  TGI: > 100 µM
[22]
  GI50: 6.94 µM
  TGI: > 100 µM
[23]
  GI50: 5.11 µM
  TGI: > 100 µM
[24]
  GI50: 3.46 µM
  TGI: 71.7 µM
[25]
  GI50: 3.53 µM
  TGI: > 100 µM
[26]
  GI50: 3.24 µM
  TGI: > 100 µM
[27]
  GI50: 11.3 µM
  TGI: > 100 µM
[28]
  GI50: 3.24 µM
  TGI: 19.6 µM
[29]
  GI50: 8.15 µM
  TGI: > 100 µM
[30]
  GI50: 10.6 µM
  TGI: > 100 µM
[31]
  GI50: 3.69 µM
  TGI: > 100 µM
[32]
  GI50: 4 µM
  TGI: > 100 µM
[33]
  GI50: 7.31 µM
  TGI: > 100 µM
[34]
  GI50: 3.7 µM
  TGI: > 100 µM
[35]
  GI50: 4.15 µM
  TGI: > 100 µM
[36]
  GI50: 4.12 µM
  TGI: > 100 µM
[37]
  GI50: 4.35 µM
  TGI: > 100 µM
[38]
  GI50: 13.7 µM
  TGI: 48.4 µM
[39]
  GI50: > 100 µM
  TGI: > 100 µM
[40]
  GI50: 3.74 µM
  TGI: > 100 µM
[41]
  GI50: 5.68 µM
  TGI: > 100 µM
[42]
  GI50: 2540 nM
  TGI: > 100 µM
[43]
  GI50: 3.19 µM
  TGI: > 100 µM
[44]
  GI50: 3.45 µM
  TGI: > 100 µM
[45]
  GI50: 6.96 µM
  TGI: > 100 µM
[46]
  GI50: 3.59 µM
  TGI: > 100 µM
[47]
  GI50: 2860 nM
  TGI: 21.1 µM
[48]
  GI50: 2510 nM
  TGI: 16.4 µM
[49]
  GI50: 7.13 µM
  TGI: > 100 µM
[50]
  GI50: 4.32 µM
  TGI: > 100 µM
[51]
  GI50: 6.8 µM
  TGI: > 100 µM
[52]
  GI50: 7.41 µM
  TGI: > 100 µM
[53]
  GI50: 4.37 µM
  TGI: > 100 µM
[54]
  GI50: 1530 nM
  TGI: 16.2 µM
[55]
  GI50: 4.86 µM
  TGI: > 100 µM
[56]
  GI50: 6.7 µM
  TGI: > 100 µM
[57]
  GI50: 4.61 µM
  TGI: > 100 µM
